Each structure is given as a SMILES string. A value given as a limit tells only on which side of the number the result lay.

For one assay, the system named is Pa16c cells. Kind of assay: Pa16c cell proliferation assay (resazurin). Type of assay: cell-based. The conditions noted are these: Table 2, inhibition of cell proliferation. As for the experimental part: Pa16c cells are obtained from Dr. Channing Der, University of North Carolina at Chapel Hill. Briefly, cells are grown in Dulbecco's Modified Eagle Medium supplemented with 10% characterized fetal bovine serum (Invitrogen, Carlsbad, CA) and 1% Penicillin/Streptomycin/L-Glutamine at 37° C., 5% CO2, and 95% humidity. Cells are expanded until reaching 70-95% confluency at which point they are sub-cultured or harvested for assay use. A serial dilution of test compound is dispensed into a 384-well black clear bottom plate in triplicate. 750 cells are added per well in 50 μL complete growth medium in the 384-well plate. Plates are incubated for 67 to 72 h at 37° C., 5% CO2, and 95% humidity. At the end of the incubation, 40 μL of a […] solution of resazurin (Sigma, St. Louis, MO) in PBS is added to each well of the plate and plates are incubated for an additional 18 to 24 h at 37° C., 5% CO2, and 95% humidity. Plates are read on a Synergy2 or equivalent reader (Biotek, Winooski, VT) using an excitation of 540 nm and an emission of 600 nm. Data is analyzed using Prism software (Graphpad, San Diego, CA) to calculate IC50 values.

A further assay concerns HCT-116 cells. Kind of assay: HCT-116 cell proliferation assay (resazurin). It is filed as cell-based. The conditions noted are these: Homo sapiens; Table 2, inhibition of cell proliferation; read-out: HCT-116. As for the experimental part: HCT-116 cells (catalog #CCL-247) are obtained from the American Type Culture Collect (ATCC, Manassas, VA). Briefly, cells are grown in McCoy's 5A supplemented with 10% characterized fetal bovine serum (Invitrogen, Carlsbad, CA) and 1% Penicillin/Streptomycin/L-Glutamine at 37° C., 5% CO2, and 95% humidity. Cells are expanded until reaching 70-95% confluency at which point they are sub-cultured or harvested for assay use. A serial dilution of test compound is dispensed into a 384-well black clear bottom plate in triplicate. 375 cells are added per well in 50 μL complete growth medium in the 384-well plate. Plates are incubated for 67 to 72 h at 37° C., 5% CO2, and 95% humidity. At the end of the incubation, 40 μL of a […] solution of resazurin (Sigma, St. Louis, MO) in PBS is added to each well of the plate and plates are incubated for an additional 4 to 5 h at 37° C., 5% CO2, and 95% humidity. Plates are read on a Synergy2 or equivalent reader (Biotek, Winooski, VT) using an excitation of 540 nm and an emission of 600 nm. Data is analyzed using Prism software (Graphpad, San Diego, CA) to calculate IC50 values.
On the technique in general: The colour change of resazurin is a common sign of viable cells or microbes.

For a further assay, the system named is HPAF-II cells. Put plainly: HPAF-II cell proliferation assay (resazurin). The conditions noted are these: Homo sapiens; Table 2, inhibition of cell proliferation; read-out: HPAF-II. Type of assay: cell-based. The protocol: HPAF-II cells (catalog #CRL-1997) are obtained from the American Type Culture Collect (ATCC, Manassas, VA). Briefly, cells are grown in Minimum Essential Media supplemented with 10% characterized fetal bovine serum (Invitrogen, Carlsbad, CA) and 1% Penicillin/Streptomycin/L-Glutamine at 37° C., 5% CO2, and 95% humidity. Cells are expanded until reaching 70-95% confluency at which point they are sub-cultured or harvested for assay use. A serial dilution of test compound is dispensed into a 384-well black clear bottom plate in triplicate. 750 cells are added per well in 50 μL complete growth medium in the 384-well plate. Plates are incubated for 115 to 120 h at 37° C., 5% CO2, and 95% humidity. At the end of the incubation, 40 μL of a […] solution of resazurin (Sigma, St. Louis, MO) in PBS is added to each well of the plate and plates are incubated for an additional 18 to 24 h at 37° C., 5% CO2, and 95% humidity. Plates are read on a Synergy2 or equivalent reader (Biotek, Winooski, VT) using an excitation of 540 nm and an emission of 600 nm. Data is analyzed using Prism software (Graphpad, San Diego, CA) to calculate IC50 values.

In another assay the target is T1, C-Raf kinase (Homo sapiens, UniProt P04049, Y340D/Y341D).
T1 construct: C-Raf residues 306-end; Y340D, Y341D with N-; purchased Sigma
T1 sequence (P04049 307-648 Y340D/Y341D): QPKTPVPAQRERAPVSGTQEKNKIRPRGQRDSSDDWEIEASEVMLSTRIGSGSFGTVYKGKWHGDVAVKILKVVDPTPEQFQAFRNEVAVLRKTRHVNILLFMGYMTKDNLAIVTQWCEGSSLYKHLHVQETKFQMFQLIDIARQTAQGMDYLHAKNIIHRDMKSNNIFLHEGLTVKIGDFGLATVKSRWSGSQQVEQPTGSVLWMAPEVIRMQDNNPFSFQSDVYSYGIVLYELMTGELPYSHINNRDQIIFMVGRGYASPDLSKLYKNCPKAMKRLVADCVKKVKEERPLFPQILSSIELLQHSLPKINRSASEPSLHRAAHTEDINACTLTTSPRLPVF
Kind of assay: Biochemical assay for C-Raf (coupled pyruvate kinase/lactate dehydrogenase). The conditions noted are these: Table 1, inhibition of biochemical activity; read-out: CRAF.

A further assay concerns MiaPaca-2 cells. Kind of assay: MiaPaca-2 cell proliferation assay (resazurin). Type of assay: cell-based. The conditions noted are these: Homo sapiens, MIA PaCa-2; Table 2, inhibition of cell proliferation; read-out: MiaPaca-2. As for the experimental part:
MiaPaca-2 cells (catalog #CRL-1420) are obtained from the American Type Culture Collect (ATTC, Manassas, VA). Briefly, cells were grown in DMVEM supplemented with […] fetal bovine serum (Invitrogen, Carlsbad, CA), 2.5% New Zealand sourced horse serum and 1% Penicillin/Streptomycin/L-Glutamine at 37° C., […], and […]. Cells are expanded until reaching […] at which point they are sub-cultured or harvested for assay use. For assays completed in 96-well plates, a serial dilution of test compound is dispensed into a 96-well black clear bottom plate in triplicate. Three thousand cells are added per well in 200 μL complete growth medium in the 96-well plate. Plates are incubated for 67 to 72 h at 37° C., 5% CO2, and 95% humidity. At the end of the incubation, 40 μL of a […] solution of resazurin (Sigma, St. Louis, MO) in PBS is added to each well of the plate and plates are incubated for an additional 5 to 6 h at 37° C., 5% CO2, and 95% humidity. For 384-well assays, a threefold, 8-point serial dilution of compound was spotted column wise into a 384 well black, clear bottom, tissue culture treated plate using the Beckman Coulter Echo 650. Likewise, a threefold, 8-point serial dilution of cobimetinib was spotted row wise into the 384 well black, clear bottom plate containing compound. DMSO concentration was constant across all wells at 0.4%. Seven hundred fifty cells are added per well in 50 μL complete growth medium in each 384-well plate. Plates are incubated for 67 to 72 h at 37° C., 5% CO2, and 95% humidity. At the end of the incubation, 10 μL of a 440 μM solution of resazurin (Sigma, St. Louis, MO) in PBS is added to each well of the plate and plates are incubated for an additional 4 to 6 h at 37° C., 5% CO2, and 95% humidity. Plates are read on a Synergy2 or equivalent reader (Biotek, Winooski VT) using an excitation of 540 nm and an emission of 600 nm. Data is analyzed using Prism software (Graphpad, San Diego, CA) to calculate IC50 values.

The next assay deals with T2, B-Raf kinase (Homo sapiens, UniProt P15056).
T2 construct: purchased Sigma
T2 sequence (P15056 416-766): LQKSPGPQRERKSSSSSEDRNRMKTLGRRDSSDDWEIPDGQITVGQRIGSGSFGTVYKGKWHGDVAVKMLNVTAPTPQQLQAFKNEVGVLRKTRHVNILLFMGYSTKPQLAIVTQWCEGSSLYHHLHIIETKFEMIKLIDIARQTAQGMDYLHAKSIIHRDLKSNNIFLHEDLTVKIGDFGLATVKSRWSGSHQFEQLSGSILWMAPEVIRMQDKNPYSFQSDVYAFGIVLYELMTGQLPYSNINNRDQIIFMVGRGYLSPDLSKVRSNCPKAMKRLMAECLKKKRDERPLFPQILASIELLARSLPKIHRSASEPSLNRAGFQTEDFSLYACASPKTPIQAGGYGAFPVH
Put plainly: Biochemical assay for B-Raf (coupled pyruvate kinase/lactate dehydrogenase). The conditions noted are these: Table 1, inhibition of biochemical activity; read-out: BRAF.

Turning to `CNC(=O)c1cc(-c2cc(N[C@H](C)CO)nc(-c3cc(NC(=O)c4cc(C(F)(F)F)cnn4)ccc3C)n2)ccn1` [Example 39], the IC50 with Pa16c cells was 1000 to 10000 nM; in the assay with HCT-116 cells, 1000 to 10000 nM; in the assay on HPAF-II cells, 1000 to 10000 nM; on C-Raf kinase, 100 to 500 nM; with MiaPaca-2 cells, 1000 to 10000 nM; on B-Raf kinase it was 100 to 500 nM.

Consider `CNC(=O)c1cc(-c2cc(-c3cc(NC(=O)c4ccc(C(F)(F)F)nc4)ccc3C)cc(N[C@H](C)CO)n2)ccn1` [Example 44], for which the IC50 was in the range of 1000 to 10000 nM in the assay with Pa16c cells; 1000 to 10000 nM in the assay on HCT-116 cells; 1000 to 10000 nM in the assay on HPAF-II cells; 100 to 500 nM on C-Raf kinase; 1000 to 10000 nM with MiaPaca-2 cells; 100 to 500 nM on B-Raf kinase.

As for `CNC(=O)c1cc(-c2cc(-c3cc(NC(=O)c4cncc(C(F)(F)F)c4)ccc3C)ccn2)ccn1` [Example 12], the IC50 with Pa16c cells is 1000 to 10000 nM; in the assay with HCT-116 cells it was 1000 to 10000 nM; in the assay with HPAF-II cells, 1000 to 10000 nM; at C-Raf kinase, < 100 nM; in the assay with MiaPaca-2 cells, 1000 to 10000 nM; on B-Raf kinase, < 100 nM.

Regarding `CNC(=O)c1cc(-c2cc(-c3cc(NC(=O)c4cc(C(F)(F)F)cnn4)ccc3C)nc(NCCO)n2)ccn1` [Example 19], the IC50 was 500 to 1000 nM in the assay with Pa16c cells; 100 to 500 nM with HCT-116 cells; 100 to 500 nM with HPAF-II cells; < 100 nM at C-Raf kinase; 100 to 500 nM in the assay with MiaPaca-2 cells; < 100 nM at B-Raf kinase.

Take `CNC(=O)c1cc(-c2cc(-c3cc(NC(=O)c4cc(Cl)cnn4)ccc3C)ccn2)ccn1` [Example 36]: the IC50 was 1000 to 10000 nM in the assay on Pa16c cells; 500 to 1000 nM with HCT-116 cells; 1000 to 10000 nM with HPAF-II cells; < 100 nM at C-Raf kinase; 500 to 1000 nM in the assay with MiaPaca-2 cells; 100 to 500 nM on B-Raf kinase.

Turning to `CNC(=O)c1cc(-c2cncc(-c3cc(NC(=O)c4cc(C5CC5)cnn4)ccc3C)c2)ncn1` [Example 24], the IC50 with Pa16c cells was 1000 to 10000 nM; with HCT-116 cells, 1000 to 10000 nM; in the assay with HPAF-II cells it was 1000 to 10000 nM; at C-Raf kinase, < 100 nM; in the assay with MiaPaca-2 cells it was 1000 to 10000 nM; on B-Raf kinase, < 100 nM.

For the compound `CNC(=O)c1cc(-c2cc(-c3cc(NC(=O)c4cc(C(C)(F)F)cnn4)ccc3C)cc(OCCO)n2)ccn1` [Example 43], the IC50 in the assay on Pa16c cells was 100 to 500 nM; in the assay on HCT-116 cells it was 100 to 500 nM; with HPAF-II cells it was 100 to 500 nM; at C-Raf kinase it was < 100 nM; with MiaPaca-2 cells, 500 to 1000 nM; at B-Raf kinase, < 100 nM.

`CNC(=O)c1cc(-c2cc(-c3cc(NC(=O)c4cc(C(F)(F)F)cnn4)ccc3C)nc(N[C@H](C)CO)n2)ccn1` [Example 25]: the IC50 in the assay with Pa16c cells was 1000 to 10000 nM; in the assay on HCT-116 cells it was 100 to 500 nM; in the assay with HPAF-II cells, 100 to 500 nM; on C-Raf kinase, < 100 nM; in the assay on MiaPaca-2 cells it was 100 to 500 nM; on B-Raf kinase it was < 100 nM.

For the origin of these results see patent publication US20260176260A1, “DUAL RAF AND TUBULIN INHIBITORS AND METHODS OF USE THEREOF” (Deciphera Pharmaceuticals, LLC, priority 2023, published 2026).
